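Each compound was tested at five concentrations against cells in 96-well plates for 48 hours. Abbreviation: GI50, concentration required for 50% inhibition of growth. TGI: total growth inhibition.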
Experiments:
Assay in all cases: NCI-60 cell line screen, 48 h
RXF 393 renal = system: RXF 393 renal
HCT-15 colon = system: HCT-15 colon
SK-OV-3 ovarian = system: SK-OV-3 ovarian
TK-10 renal = system: TK-10 renal
UACC-62 melanoma = system: UACC-62 melanoma
ACHN renal = system: ACHN renal
MOLT-4 leukemia = system: MOLT-4 leukemia
OVCAR-5 ovarian = system: OVCAR-5 ovarian
SK-MEL-28 melanoma = system: SK-MEL-28 melanoma
A549 NSCLC = system: A549 NSCLC
A498 renal = system: A498 renal
SNB-19 CNS = system: SNB-19 CNS
MALME-3M melanoma = system: MALME-3M melanoma
U251 CNS = system: U251 CNS
CCRF-CEM leukemia = system: CCRF-CEM leukemia
NCI-H23 lung = system: NCI-H23 lung
MDA-MB-435 = system: MDA-MB-435
K-562 leukemia = system: K-562 leukemia
SR leukemia = system: SR leukemia
HS 578T breast = system: HS 578T breast
NCI/ADR-RES ovarian = system: NCI/ADR-RES ovarian
SK-MEL-5 melanoma = system: SK-MEL-5 melanoma
LOX IMVI melanoma = system: LOX IMVI melanoma
OVCAR-4 ovarian = system: OVCAR-4 ovarian
HCT-116 colon = system: HCT-116 colon
T-47D breast = system: T-47D breast
PC-3 prostate = system: PC-3 prostate
IGROV1 ovarian = system: IGROV1 ovarian
UACC-257 melanoma = system: UACC-257 melanoma
NCI-H522 lung = system: NCI-H522 lung
OVCAR-8 ovarian = system: OVCAR-8 ovarian
HOP-62 NSCLC = system: HOP-62 NSCLC
SNB-75 CNS = system: SNB-75 CNS
SF-539 CNS = system: SF-539 CNS
NCI-H226 lung = system: NCI-H226 lung
SW-620 colon = system: SW-620 colon
DU-145 prostate = system: DU-145 prostate
SK-MEL-2 melanoma = system: SK-MEL-2 melanoma
CAKI-1 renal = system: CAKI-1 renal
786-0 renal = system: 786-0 renal
MCF7 breast = system: MCF7 breast
UO-31 renal = system: UO-31 renal
OVCAR-3 ovarian = system: OVCAR-3 ovarian
SF-295 CNS = system: SF-295 CNS
EKVX NSCLC = system: EKVX NSCLC
HCC-2998 colon = system: HCC-2998 colon
COLO 205 colon = system: COLO 205 colon
SF-268 CNS = system: SF-268 CNS
BT-549 breast = system: BT-549 breast
HL-60(TB) leukemia = system: HL-60(TB) leukemia
HT29 colon = system: HT29 colon
HOP-92 NSCLC = system: HOP-92 NSCLC
MDA-MB-231 breast = system: MDA-MB-231 breast
NCI-H460 lung = system: NCI-H460 lung
SN12C renal = system: SN12C renal
KM12 colon = system: KM12 colon

CC1CCN(C(=O)OCc2nc3nc(Cl)nc(N4CCOCC4)c3[nH]2)CC1
GI50 (RXF 393 renal): 554 nM
TGI (RXF 393 renal): 2000 nM
GI50 (HCT-15 colon): 634 nM
TGI (HCT-15 colon): 2220 nM
GI50 (SK-OV-3 ovarian): 7350 nM
TGI (SK-OV-3 ovarian): 21000 nM
GI50 (TK-10 renal): 1820 nM
TGI (TK-10 renal): 3440 nM
GI50 (UACC-62 melanoma): 1290 nM
TGI (UACC-62 melanoma): 2550 nM
GI50 (ACHN renal): 583 nM
TGI (ACHN renal): 1880 nM
GI50 (MOLT-4 leukemia): 704 nM
TGI (MOLT-4 leukemia): 4040 nM
GI50 (OVCAR-5 ovarian): 1310 nM
TGI (OVCAR-5 ovarian): 2730 nM
GI50 (SK-MEL-28 melanoma): 1560 nM
TGI (SK-MEL-28 melanoma): 2940 nM
GI50 (A549 NSCLC): 1940 nM
TGI (A549 NSCLC): 4810 nM
GI50 (A498 renal): 1650 nM
TGI (A498 renal): 4050 nM
GI50 (SNB-19 CNS): 1550 nM
TGI (SNB-19 CNS): 2900 nM
GI50 (MALME-3M melanoma): 1500 nM
TGI (MALME-3M melanoma): 2860 nM
GI50 (U251 CNS): 1660 nM
TGI (U251 CNS): 3430 nM
GI50 (CCRF-CEM leukemia): 290 nM
TGI (CCRF-CEM leukemia): 964 nM
GI50 (NCI-H23 lung): 1580 nM
TGI (NCI-H23 lung): 3650 nM
GI50 (MDA-MB-435): 835 nM
TGI (MDA-MB-435): 2240 nM
GI50 (K-562 leukemia): 434 nM
TGI (K-562 leukemia): 13600 nM
GI50 (SR leukemia): 331 nM
TGI (SR leukemia): 3310 nM
GI50 (HS 578T breast): 1760 nM
TGI (HS 578T breast): 4850 nM
GI50 (NCI/ADR-RES ovarian): 2210 nM
TGI (NCI/ADR-RES ovarian): 10400 nM
GI50 (SK-MEL-5 melanoma): 1740 nM
TGI (SK-MEL-5 melanoma): 3140 nM
GI50 (LOX IMVI melanoma): 175 nM
TGI (LOX IMVI melanoma): 473 nM
GI50 (OVCAR-4 ovarian): 1350 nM
TGI (OVCAR-4 ovarian): 2720 nM
GI50 (HCT-116 colon): 209 nM
TGI (HCT-116 colon): 1160 nM
GI50 (T-47D breast): 1760 nM
TGI (T-47D breast): 4890 nM
GI50 (PC-3 prostate): 832 nM
TGI (PC-3 prostate): 2420 nM
GI50 (IGROV1 ovarian): 529 nM
TGI (IGROV1 ovarian): 1830 nM
GI50 (UACC-257 melanoma): 1730 nM
TGI (UACC-257 melanoma): 3760 nM
GI50 (NCI-H522 lung): 1080 nM
TGI (NCI-H522 lung): 3130 nM
GI50 (OVCAR-8 ovarian): 1900 nM
TGI (OVCAR-8 ovarian): 9020 nM
GI50 (HOP-62 NSCLC): 1760 nM
TGI (HOP-62 NSCLC): 5000 nM
GI50 (SNB-75 CNS): 1060 nM
TGI (SNB-75 CNS): 2290 nM
GI50 (SF-539 CNS): 1110 nM
TGI (SF-539 CNS): 2320 nM
GI50 (NCI-H226 lung): 1620 nM
TGI (NCI-H226 lung): 4230 nM
GI50 (SW-620 colon): 551 nM
TGI (SW-620 colon): 2070 nM
GI50 (DU-145 prostate): 1140 nM
TGI (DU-145 prostate): 2350 nM
GI50 (SK-MEL-2 melanoma): 1860 nM
TGI (SK-MEL-2 melanoma): 3770 nM
GI50 (CAKI-1 renal): 720 nM
TGI (CAKI-1 renal): 2270 nM
GI50 (786-0 renal): 1290 nM
TGI (786-0 renal): 2690 nM
GI50 (MCF7 breast): 650 nM
TGI (MCF7 breast): 2380 nM
GI50 (UO-31 renal): 692 nM
TGI (UO-31 renal): 2050 nM
GI50 (OVCAR-3 ovarian): 438 nM
TGI (OVCAR-3 ovarian): 1710 nM
GI50 (SF-295 CNS): 3760 nM
TGI (SF-295 CNS): 15300 nM
GI50 (EKVX NSCLC): 1480 nM
TGI (EKVX NSCLC): 3300 nM
GI50 (HCC-2998 colon): 1690 nM
TGI (HCC-2998 colon): 3290 nM
GI50 (COLO 205 colon): 1750 nM
TGI (COLO 205 colon): 4990 nM
GI50 (SF-268 CNS): 1420 nM
TGI (SF-268 CNS): 2840 nM
GI50 (BT-549 breast): 1250 nM
TGI (BT-549 breast): 3070 nM
GI50 (HL-60(TB) leukemia): 423 nM
TGI (HL-60(TB) leukemia): 3780 nM
GI50 (HT29 colon): 831 nM
TGI (HT29 colon): 6380 nM
GI50 (HOP-92 NSCLC): 49.7 nM
TGI (HOP-92 NSCLC): 1060 nM
GI50 (MDA-MB-231 breast): 1250 nM
TGI (MDA-MB-231 breast): 2700 nM
GI50 (NCI-H460 lung): 1380 nM
TGI (NCI-H460 lung): 2990 nM
GI50 (SN12C renal): 865 nM
TGI (SN12C renal): 2160 nM
GI50 (KM12 colon): 1580 nM
TGI (KM12 colon): 3330 nM
